In patent US4042711A, “Derivatives of biphenyloxy-lower alkanoic acids, salts thereof and their use as antihyperlipidemics” (Boehringer Ingelheim GmbH, priority 1975, dated 1977):

Columns and labels:
[1] = tested on: Cholesterol level in the serum; assay: Lipid level lowering activity: serum cholesterol depression in normolipemic rats; type: in vivo, male normolipemic rats; conditions: Rattus norvegicus, oral, by regression analysis; for ED20: dose leading to 20% depression of serum cholesterol; for ED15: dose leading to 15% depression of serum cholesterol
Protocol: (§1) The above pharmacologicaly activity of the compounds of this invention, as well as their acute toxicities, were ascertained along with those of the three antihyperlipidemic compounds of the prior art by the standard test methods described below.
The test compound was administered twice by an esophageal tube at 20 hours' interval to male normolipemic rats having a body weight of 250-300 gm. When the test began, the animals were deprived of food, but water was freely accessible to them. 28 and 44 hours later the serum cholesterol and triglyceride-levels were determined. The measurement of cholesterol and triglycerides was effected simultaneously, using an autoanalyzer; the percentage depression was calculated, compared with a control group treated with placebo.
The cholesterol-lowering activity of the test compound was observed after oral administration of one dose and after oral administration of various doses.

Acute toxicity, oral = type: in vivo; conditions: mouse, in vivo, white mice, observation time 14 days
Protocol: as §1
(§2) The acute toxicity was determined on groups of 5 or 6 white mice each, after oral administration of the test compound at dosage levels of 2.5 gm/kg, 5 gm/kg and 10 gm/kg (observation time 14 days).

white mice = assay: Acute toxicity, oral; type: in vivo; conditions: 14 days, at the dose given as LD50
Protocol: as §1, §2

[2] = as disclosed in prior-art patents; cited from earlier work
[3] = see Therapie 27, 385 (1972); cited from earlier work
[4] = 28 hours after beginning of the test
[5] = 44 hours after beginning of the test

SMILES | ED20 [1, 4] [mg/kg] | ED20 [1, 5] [mg/kg] | LD50 at 336 h (Acute toxicity, oral) [mg/kg] | animals died (white mice) | ED15 [1, 4] [mg/kg] | ED15 [1, 5] [mg/kg] | antihypercholesteremic / antihyperlipidemic properties [2] | Toxicity (LD50) [3] [gm/kg]
COc1ccc(Cl)cc1C(=O)NCCc1ccc(-c2ccc(OC(C)(C)C(=O)O)cc2)cc1 [A, 2-methyl-2-{4-[2-(2-methoxy-5-chloro-benzamido)-ethyl]-biphenyl-4'-oxy}-propionic acid] | 16 | 4.41 | > 10000 | 0 out of 5 |  |  |  | 
COc1ccccc1C(=O)NCCc1ccc(-c2ccc(OC(C)(C)C(=O)O)cc2)cc1 [B, 2-methyl-2-{4-[2-(2-methoxy-benzamido)-ethyl]-biphenyl-4'-oxy}-propionic a cid] | 3.1 | 0.59 | > 2500 | 1 out of 5 |  |  |  | 
CCOC(=O)C(C)(C)Oc1ccc(Cl)cc1 [C, ethyl 2-(4-chlorophenoxy)-2-methyl propionate] | 22 | 32 |  |  | 15 | 25 | has antihypercholesteremic properties | 1.7
COC(=O)C(C)(C)Oc1ccc(-c2ccc(Cl)cc2)cc1 [D, methyl 2-[4-(4-chlorophenyl)-phenoxy]-2-methyl-propionate] | 11 | 5.6 | 5000 | 3 out of 5 | 6.9 | 4.4 | has antihyperlipidemic properties | 
CCOC(=O)C(C)(C)Oc1ccc(CCNC(=O)c2cc(Cl)ccc2OC)cc1 [E, ethyl 2-methyl-2-{4-[2-(2-methoxy-5-chloro-benzamido)-ethyl]-phenoxy}-propionate] | 5 | 5 | 2500 | 3 out of 6 | 3.6 | 3.6 | exhibits similar properties | 
